From publication PMC12834961 (Scientific Reports, 2025) come the findings set out here.

For the assay, the target named is epidermal growth factor receptor (EGFR) (Homo sapiens, UniProt P00533). Kind of assay: SPR. Format: binding.

Each structure is given as a SMILES string.

Sequence of epidermal growth factor receptor (EGFR) (P00533 25-1210): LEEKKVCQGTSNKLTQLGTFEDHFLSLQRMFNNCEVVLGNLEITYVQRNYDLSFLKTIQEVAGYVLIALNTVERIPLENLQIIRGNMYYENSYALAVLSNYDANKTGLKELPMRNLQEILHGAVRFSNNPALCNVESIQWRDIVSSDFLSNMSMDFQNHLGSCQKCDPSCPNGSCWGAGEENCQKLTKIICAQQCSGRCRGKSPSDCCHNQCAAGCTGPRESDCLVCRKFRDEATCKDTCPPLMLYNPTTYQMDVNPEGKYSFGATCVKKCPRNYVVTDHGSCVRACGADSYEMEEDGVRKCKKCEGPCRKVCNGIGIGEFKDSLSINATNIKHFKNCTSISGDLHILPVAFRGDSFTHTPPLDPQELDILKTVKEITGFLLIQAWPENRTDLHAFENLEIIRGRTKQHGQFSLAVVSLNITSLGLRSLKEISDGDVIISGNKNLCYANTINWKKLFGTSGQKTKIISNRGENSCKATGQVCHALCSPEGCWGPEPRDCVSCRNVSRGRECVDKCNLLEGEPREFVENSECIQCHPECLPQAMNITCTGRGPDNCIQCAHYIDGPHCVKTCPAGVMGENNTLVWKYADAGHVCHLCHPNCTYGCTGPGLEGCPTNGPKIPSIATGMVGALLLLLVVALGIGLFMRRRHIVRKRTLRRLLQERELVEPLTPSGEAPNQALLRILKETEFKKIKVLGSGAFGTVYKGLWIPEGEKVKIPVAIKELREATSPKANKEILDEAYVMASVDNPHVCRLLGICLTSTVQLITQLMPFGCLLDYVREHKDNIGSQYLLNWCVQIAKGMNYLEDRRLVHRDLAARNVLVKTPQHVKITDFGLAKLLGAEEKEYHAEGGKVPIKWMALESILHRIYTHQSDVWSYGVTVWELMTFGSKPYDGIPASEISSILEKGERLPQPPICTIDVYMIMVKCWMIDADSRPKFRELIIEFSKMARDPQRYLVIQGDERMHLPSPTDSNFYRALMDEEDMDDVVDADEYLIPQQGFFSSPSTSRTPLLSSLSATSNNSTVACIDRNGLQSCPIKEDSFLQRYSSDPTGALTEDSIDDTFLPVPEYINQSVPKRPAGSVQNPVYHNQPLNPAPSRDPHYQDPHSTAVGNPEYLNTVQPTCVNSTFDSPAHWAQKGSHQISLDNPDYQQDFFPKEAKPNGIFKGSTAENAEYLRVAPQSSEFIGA

A word on the Kd: it is the constant that tells how readily two partners part at equilibrium. Lower therefore signals tighter binding. For `O=c1c(-c2ccc(O[C@@H]3O[C@H](CO)[C@@H](O)[C@H](O)[C@H]3O)cc2)coc2cc(O)cc(O)c12` [Sop, Sophoricoside], the Kd was about 56.1 µM.
